Results published in publication PMC2917178 (Biochemistry, 2010).
Entries after “also recorded” stand apart in the source; their conditions may differ. Where two headings read alike, the source gives them in different places.

Columns and labels:
[1] = target: Rtt109 D287N (with Vps75) (Saccharomyces cerevisiae, UniProt P53853+Q07794, D287N); format: biochemical, yeast (Saccharomyces cerevisiae); settings: AcCoA varied 0.5-30 μM, 400 μM H3 peptide, 0.1-0.5 μM Rtt109 variant, 4 μM Vps75, 50 mM Tris pH 7.5, 25 °C
[2] = target: Rtt109 D288N (with Vps75) (Saccharomyces cerevisiae, UniProt P53853+Q07794, D288N); format: biochemical, yeast (Saccharomyces cerevisiae); settings: AcCoA varied 0.5-30 μM, 400 μM H3 peptide, 0.1-0.5 μM Rtt109 variant, 4 μM Vps75, 50 mM Tris pH 7.5, 25 °C
[3] = target: T1, Rtt109-Vps75 (Saccharomyces cerevisiae, UniProt P53853+Q07794); experiment: Isothermal titration calorimetry into Rtt109-Vps75; format: binding, yeast (Saccharomyces cerevisiae)
T1 sequence (Q07794 1-436): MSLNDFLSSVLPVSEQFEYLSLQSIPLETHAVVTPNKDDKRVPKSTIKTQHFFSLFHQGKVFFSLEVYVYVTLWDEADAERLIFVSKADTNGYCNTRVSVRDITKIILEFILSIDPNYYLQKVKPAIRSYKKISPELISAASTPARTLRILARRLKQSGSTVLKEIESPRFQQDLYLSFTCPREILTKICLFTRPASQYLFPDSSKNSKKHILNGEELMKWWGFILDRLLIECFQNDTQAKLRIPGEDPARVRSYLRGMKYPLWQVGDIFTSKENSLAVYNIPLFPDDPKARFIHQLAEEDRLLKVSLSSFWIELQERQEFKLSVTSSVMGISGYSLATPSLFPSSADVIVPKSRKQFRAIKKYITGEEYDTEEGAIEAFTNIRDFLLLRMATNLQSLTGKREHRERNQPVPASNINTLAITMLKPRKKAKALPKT
T1 sequence (P53853 1-264 partner): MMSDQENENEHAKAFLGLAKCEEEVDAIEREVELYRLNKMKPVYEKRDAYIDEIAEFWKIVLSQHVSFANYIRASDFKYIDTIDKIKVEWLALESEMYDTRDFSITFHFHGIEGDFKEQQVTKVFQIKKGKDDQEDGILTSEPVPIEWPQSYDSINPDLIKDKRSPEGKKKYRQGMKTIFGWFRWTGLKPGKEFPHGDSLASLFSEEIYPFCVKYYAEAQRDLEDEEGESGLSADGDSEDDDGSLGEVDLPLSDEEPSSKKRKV

[4] = target: T1, Rtt109-Vps75; experiment: CoA product inhibition of Rtt109-Vps75; format: biochemical, yeast (Saccharomyces cerevisiae)
[5] = Stability of Rtt109 alone; format: physicochemical; settings: without AcCoA or Vps75, 25°C
[6] = tested on: Rtt109; experiment: HAT activity with fluorescein-labeled Vps75; format: biochemical, yeast; settings: fluorescein-5-maleimide labeled Vps75, 1:1 label to Vps75
[7] = tested on: p300; settings: cited from earlier work

Sequence of Rtt109 D287N (with Vps75) (Q07794 whole entry D287N, one chain of several): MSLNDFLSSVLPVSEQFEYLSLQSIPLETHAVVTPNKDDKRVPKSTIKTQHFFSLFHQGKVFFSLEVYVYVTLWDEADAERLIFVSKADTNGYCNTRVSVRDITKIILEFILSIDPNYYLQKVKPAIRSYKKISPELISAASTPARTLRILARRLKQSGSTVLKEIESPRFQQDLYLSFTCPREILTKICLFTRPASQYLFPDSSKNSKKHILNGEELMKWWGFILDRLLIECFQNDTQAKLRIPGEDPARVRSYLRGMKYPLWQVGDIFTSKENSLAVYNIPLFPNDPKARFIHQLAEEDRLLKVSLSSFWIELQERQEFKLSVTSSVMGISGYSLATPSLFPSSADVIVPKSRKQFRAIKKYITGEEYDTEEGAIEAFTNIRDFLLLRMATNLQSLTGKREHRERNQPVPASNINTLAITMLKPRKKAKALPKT
Sequence of Rtt109 D288N (with Vps75) (Q07794 whole entry D288N, one chain of several): as the sequence (Q07794 whole entry D287N, one chain of several) above, with N287D, D288N counted along it

In the case of `CC(=O)SCCNC(=O)CCNC(=O)[C@H](O)C(C)(C)COP(=O)(O)OP(=O)(O)OC[C@H]1O[C@@H](n2cnc3c(N)ncnc32)[C@H](O)[C@@H]1OP(=O)(O)O` [AcCoA, acetyl-Coenzyme A], the Km [1] is reported as 0.7 ± 0.3 µM, the kcat [1] is reported as 1.2 ± 0.1 × 10^-2 s^-1 and the kcat/Km [1] is reported as 1.7 ± 0.7 × 10^4 M^-1s^-1. The Km [2] was 4.9 ± 0.9 µM, the kcat [2] was 2.8 ± 0.2 × 10^-3 s^-1 and the kcat/Km [2] was 6 ± 1 × 10^2 M^-1s^-1. The Kd ([3]; 167 μM AcCoA titrated into 5.8 μM Rtt109-Vps75, 50 mM Tris pH 7.5 at 25°C, 5% glycerol, 50 mM NaCl, 2 mM β-mercaptoethanol, 1 mM EDTA, one-site model) was 1.4 ± 0.3 µM and the “binding affinity for AcCoA over CoA” value ([3]; ratio of binding affinities, Rtt109-Vps75) was 30 fold.

For `CC(C)(COP(=O)(O)OP(=O)(O)OC[C@H]1O[C@@H](n2cnc3c(N)ncnc32)[C@H](O)[C@@H]1OP(=O)(O)O)[C@@H](O)C(=O)NCCC(=O)NCCS` [CoA, Coenzyme A], the Ki [4] was 110 ± 20 µM, the “product inhibition pattern versus AcCoA” value ([4]; varied AcCoA, fixed CoA, 5 μM full-length H3, double reciprocal plot) was “binds competitively with AcCoA; also recorded: competitive inhibition” and the Kd [3] was 43 ± 5 µM.

For “Rtt109: yeast histone acetyltransferase, Regulator of Ty1 Transposition 109”, the “stability of protein alone” value [5] was “unstable and precipitates at 25 °C; also recorded: unstable protein and is highly prone to aggregation”.

For “labeled Vps75: Vps75 labeled with fluorescein-5-maleimide, 1:1”, the “loss in HAT activity on fluorescein labeling” value [6] was < 2 fold.

For “p300: mammalian HAT, structural homolog of Rtt109”, the “pKa of ionizable group required for catalysis” value [7] is given as 8.4.
